Assay results from patent US7820697B2, “Compositions and method for reducing TNFα levels” (Celgene Corporation, priority 1998, dated 2010).

melting point [°C]	SMILES
214.5 to 216.5	CN(C)c1cccc2c1C(=O)N(C1CCC(=O)NC1=O)C2=O (stereo not drawn) [Example 8, 4-Dimethylamino-2-(2,6-dioxo(3-piperidyl))isoindoline-1,3-dione]
235 to 236.5	CCc1cccc2c1C(=O)N(C1CCC(=O)NC1=O)C2=O (stereo not drawn) [Example 6, 2-(2,6-Dioxo(3-piperidyl))-4-ethylisoindoline-1,3-dione]
248 to 250	Cc1cccc2c1C(=O)N(C1(C)CCC(=O)NC1=O)C2=O (stereo not drawn) [Example 10, 4-Methyl-2-(2,6-dioxo-3-methyl-(3-piperidyl))isoindoline-1,3-dione]
